{"source": "patent US6423740B1", "about": "“Chalcones having antiproliferative activity” (Indena S.p.A., priority 1997, dated 2002)", "key": {"[1]": {"system": "type II estrogen receptors", "assay": "Binding to type II estrogen receptors, displacement of 3H-estradiol in tumor cells", "details": "read-out: IC50, concentration causing 50% displacement of the estradiol labelled by its own receptor", "procedure": "The binding to type II estrogen receptors was evaluated in ovarian tumor cells and tumor cells of other target organs. The cells were grown in a single layer according to the known techniques reported in the literature. To make the test reproducibility, the cells were trypsin treated, every week and placed on plates at a density of 8×10^4 cells/cm^2 and incubated at 37° C. in air containing 5% CO2.\n(§1) The various compounds under test, dissolved in ethyl alcohol, were added at serial dilutions and the treated cells and control cells were incubated with ^3H-estradiol or in the presence of diethylstilbestrol according to the methods described by literature. The antiproliferation activity were verified in the same way by adding the compounds, dissolved in DMSO, to the medium and performing a cell count after 72 hours."}, "MDA-MB231": {"system": "MDA-MB231", "assay": "Antiproliferation activity in vitro, cell count after 72 hours, sensitive breast tumoral line", "format": "cell-based", "details": "MDA-MB-231, MDA-MB231 sensitive human breast tumoral line, read-out: IC50 (MDA-MB231), concentration causing 50% inhibition of the cell proliferation", "procedure": "as §1"}, "MCF7 ADRr": {"system": "MCF7 ADRr", "assay": "Antiproliferation activity in vitro, cell count after 72 hours, adriamycin-resistant breast tumoral line", "format": "cell-based", "details": "MCF7 ADRr adriamycin-resistant human breast tumoral line, read-out: IC50 (MCF7 ADRr), concentration causing 50% inhibition of the cell proliferation", "procedure": "as §1"}}}
{"smiles": "C#CCOc1ccc(C(=O)C=Cc2c(OC)cc(OC)cc2OC)c(O)c1", "note": "[Compound XXIII, 1-(2-Hydroxy-4-(prop-2-ynyloxy)-phenyl)-3-(2,4,6-trimethoxyphenyl)-propen-1-one]", "values": [{"measurement": "melting point", "result": "177 to 179", "unit": "°C"}]}
{"smiles": "CC(=O)Nc1ccc(C=CC(=O)c2ccc(OCC=C(C)C)cc2O)cc1", "note": "[Compound III, 1-[2-hydroxy-4-(3-methylbut-2-enyloxy)-phenyl]-3-(4-acetamidophenyl)-propen-1-one]", "values": [{"measurement": "IC50", "setting": "[1]", "result": 4.2, "unit": "µM"}, {"measurement": "IC50", "setting": "MDA-MB231", "result": 8.2, "unit": "µM"}, {"measurement": "IC50", "setting": "MCF7 ADRr", "result": 7, "unit": "µM"}]}
{"smiles": "CC(C)=CCOc1ccc(C(=O)C=Cc2ccco2)c(O)c1", "note": "[Compound XIV, 1-(2-Hydroxy-4-(3-methylbut-2-enyloxy)-phenyl)-3-(2-furyl)-propen-1-one]", "values": [{"measurement": "IC50", "setting": "[1]", "result": 3.2, "unit": "µM"}, {"measurement": "IC50", "setting": "MDA-MB231", "result": 5.7, "unit": "µM"}, {"measurement": "IC50", "setting": "MCF7 ADRr", "result": 6.3, "unit": "µM"}]}
{"smiles": "C=C(C)COc1ccc(C(=O)C=Cc2ccccc2)c(O)c1", "note": "[Compound XV, 1-(2-Hydroxy-4-(2-methylallyloxy)-phenyl)-3-(phenyl)-propen-1-one]", "values": [{"measurement": "IC50", "setting": "[1]", "result": 2.9, "unit": "µM"}, {"measurement": "IC50", "setting": "MDA-MB231", "result": 10.7, "unit": "µM"}, {"measurement": "IC50", "setting": "MCF7 ADRr", "result": 7.1, "unit": "µM"}]}
{"smiles": "CSc1ccc(C=CC(=O)c2ccc(OCC=C(C)C)cc2O)cc1", "note": "[Compound XXVI, 1-(2-Hydroxy-4-(3-methylbut-2-enyloxy)-phenyl)-3-(4-methylthiophenyl)-propen-1-one]", "values": [{"measurement": "melting point", "result": "130 to 131", "unit": "°C"}]}
{"smiles": "CC(C)=CCOc1ccc(C(=O)C=Cc2ccncc2)c(O)c1", "note": "[Compound I, 1-[2-Hydroxy-4-(3-methylbut-2-enyloxy)-phenyl]-3(pyridine-4-yl)-propen-1-one]", "values": [{"measurement": "IC50", "setting": "[1]", "result": 1.1, "unit": "µM"}, {"measurement": "IC50", "setting": "MDA-MB231", "result": 3.2, "unit": "µM"}, {"measurement": "melting point", "result": "99 to 100", "unit": "°C"}, {"measurement": "IC50", "setting": "MCF7 ADRr", "result": 2.8, "unit": "µM"}]}
{"smiles": "C=C(C)COc1ccc(C(=O)C=Cc2ccc(Br)cc2)c(O)c1", "note": "[Compound XVIII, 1-(2-Hydroxy-4-(2-methylallyloxy)-phenyl)-3-(4-bromophenyl)-propen-1-one]", "values": [{"measurement": "melting point", "result": "121 to 122", "unit": "°C"}]}
{"smiles": "CC(C)=CCOc1ccc(C(=O)C=Cc2cccs2)c(O)c1", "note": "[Compound XI, 1-(2-Hydroxy-4-(3-methylbut-2-enyloxy)-phenyl)-3-(2-thienyl)-propen-1-one]", "values": [{"measurement": "IC50", "setting": "[1]", "result": 1.4, "unit": "µM"}, {"measurement": "IC50", "setting": "MDA-MB231", "result": 4.1, "unit": "µM"}, {"measurement": "IC50", "setting": "MCF7 ADRr", "result": 3.6, "unit": "µM"}]}
{"smiles": "C=C(C)COc1ccc(C(=O)C=Cc2cccc(OC)c2)c(O)c1", "note": "[Compound IX, 1-[2-hydroxy-4-(2-methylallyloxy)-phenyl]-3-(3-methoxyphenyl)-propen-1-one]", "values": [{"measurement": "IC50", "setting": "[1]", "result": 3.1, "unit": "µM"}, {"measurement": "IC50", "setting": "MDA-MB231", "result": 5, "unit": "µM"}, {"measurement": "melting point", "result": "97 to 100", "unit": "°C"}, {"measurement": "IC50", "setting": "MCF7 ADRr", "result": 8.9, "unit": "µM"}]}
{"smiles": "CC(C)=CCOc1ccc(C(=O)C=Cc2cccnc2)c(O)c1", "note": "[Compound II, 1-[2-Hydroxy-4-(3-methylbut-2-enyloxy)-phenyl]-3(pyridine-3-yl)-propen-1-one]", "values": [{"measurement": "IC50", "setting": "[1]", "result": 3.3, "unit": "µM"}, {"measurement": "IC50", "setting": "MDA-MB231", "result": 3.2, "unit": "µM"}, {"measurement": "melting point", "result": "177 to 179", "unit": "°C"}, {"measurement": "IC50", "setting": "MCF7 ADRr", "result": 2.2, "unit": "µM"}]}
{"smiles": "C#CCOc1ccc(C(=O)C=Cc2cccnc2)c(O)c1", "note": "[Compound X, 1-[2-hydroxy-4-(prop-2-ynyloxy)-phenyl]-3-(pyridine-3-yl)propen-1-one]", "values": [{"measurement": "IC50", "setting": "[1]", "result": 2.8, "unit": "µM"}, {"measurement": "IC50", "setting": "MDA-MB231", "result": 3.7, "unit": "µM"}, {"measurement": "melting point", "result": "115 to 117", "unit": "°C"}, {"measurement": "IC50", "setting": "MCF7 ADRr", "result": 3.7, "unit": "µM"}]}
{"smiles": "CC(C)=CCOc1ccc(C(=O)C=Cc2ccc(F)cc2)c(O)c1", "note": "[Compound XIX, 1-(2-Hydroxy-4-(3-methylbut-2-enyloxy)-phenyl)-3-(4-fluorophenyl)-propen-1-one]", "values": [{"measurement": "melting point", "result": "96 to 97", "unit": "°C"}]}
{"smiles": "C=C(C)COc1ccc(C(=O)C=Cc2ccc(OC)cc2OC)c(O)c1", "note": "[Compound XVII, 1-(2-Hydroxy-4-(2-methylallyloxy)-phenyl)-3-(2,4-dimethoxyphenyl)-propen-1-one]", "values": [{"measurement": "IC50", "setting": "[1]", "result": 5.5, "unit": "µM"}, {"measurement": "IC50", "setting": "MDA-MB231", "result": 4.3, "unit": "µM"}, {"measurement": "melting point", "result": "106 to 107", "unit": "°C"}, {"measurement": "IC50", "setting": "MCF7 ADRr", "result": 5.6, "unit": "µM"}]}
{"smiles": "C=C(C)COc1ccc(C(=O)C=Cc2c[nH]c3ccccc23)c(O)c1", "note": "[Compound VI, 1-[2-Hydroxy-4-(2-methylallyloxy)-phenyl]-3-(indole-3-yl)-propen-1-one]", "values": [{"measurement": "IC50", "setting": "[1]", "result": 3.4, "unit": "µM"}, {"measurement": "IC50", "setting": "MDA-MB231", "result": 9.6, "unit": "µM"}, {"measurement": "IC50", "setting": "MCF7 ADRr", "result": 8.8, "unit": "µM"}]}
{"smiles": "CC(C)=CCOc1ccc(C(=O)C=Cc2ccc(C(F)(F)F)cc2)c(O)c1", "note": "[Compound XXII, 1-(2-Hydroxy-4-(3-methylbut-2-enyloxy)-phenyl)-3-(4-trifluoromethylphenyl)-propen-1-one]", "values": [{"measurement": "melting point", "result": "122 to 123", "unit": "°C"}]}
{"smiles": "C=C(C)COc1ccc(C(=O)C=Cc2ccc(N(C)C)cc2)c(O)c1", "note": "[Compound IV, 1-[2-hydroxy-4-(2-methylallyloxy)-phenyl]-3-(4-dimethylaminophenyl)-propen-1-one]", "values": [{"measurement": "IC50", "setting": "[1]", "result": 1.7, "unit": "µM"}, {"measurement": "IC50", "setting": "MDA-MB231", "result": 7.5, "unit": "µM"}, {"measurement": "melting point", "result": "85 to 87", "unit": "°C"}, {"measurement": "IC50", "setting": "MCF7 ADRr", "result": 9.4, "unit": "µM"}]}
{"smiles": "CC(C)=CCOc1ccc(C(=O)C=Cc2cccc([N+](=O)[O-])c2)c(O)c1", "note": "[Compound XX, 1-(2-Hydroxy-4-(3-methylbut-2-enyloxy)-phenyl)-3-(3-nitrophenyl)-propen-1-one]", "values": [{"measurement": "melting point", "result": "125 to 126", "unit": "°C"}]}
{"smiles": "CC(C)=CCOc1ccc(C(=O)C=Cc2ccc(C)cc2)c(O)c1", "note": "[Compound XXV, 1-(2-Hydroxy-4-(3-methylbut-2-enyloxy)-phenyl)-3-(4-methylphenyl)-propen-1-one]", "values": [{"measurement": "melting point", "result": "108 to 109", "unit": "°C"}]}
{"smiles": "CC(C)=CCOc1ccc(C(=O)C=Cc2c[nH]c3ccccc23)c(O)c1", "note": "[Compound V, 1-[2-hydroxy-4-(3-methylbut-2-enyloxy)-phenyl]-3-(indole-3-yl)-propen-1-one]", "values": [{"measurement": "IC50", "setting": "[1]", "result": 2.8, "unit": "µM"}, {"measurement": "IC50", "setting": "MDA-MB231", "result": 11, "unit": "µM"}, {"measurement": "IC50", "setting": "MCF7 ADRr", "result": 6.8, "unit": "µM"}]}
{"smiles": "C=C(C)COc1ccc(C(=O)C=Cc2cccs2)c(O)c1", "note": "[Compound XII, 1-(2-Hydroxy-4-(2-methylallyloxy)-phenyl)-3-(2-thienyl)-propen-1-one]", "values": [{"measurement": "IC50", "setting": "[1]", "result": 2.7, "unit": "µM"}, {"measurement": "IC50", "setting": "MDA-MB231", "result": 5.3, "unit": "µM"}, {"measurement": "IC50", "setting": "MCF7 ADRr", "result": 3.9, "unit": "µM"}]}
{"smiles": "C=C(C)COc1ccc(C(=O)C=Cc2cccnc2)c(O)c1", "note": "[Compound VIII, 1-[2-Hydroxy-4-(2-methylallyloxy)-phenyl]-3-(pyridine-3-yl)-propen-1-one]", "values": [{"measurement": "IC50", "setting": "[1]", "result": 4, "unit": "µM"}, {"measurement": "IC50", "setting": "MDA-MB231", "result": 5.4, "unit": "µM"}, {"measurement": "melting point", "result": "164 to 166", "unit": "°C"}, {"measurement": "IC50", "setting": "MCF7 ADRr", "result": 6, "unit": "µM"}]}
{"smiles": "CC(C)=CCOc1ccc(C(=O)C=Cc2c(Cl)cccc2Cl)c(O)c1", "note": "[Compound XXI, 1-(2-Hydroxy-4-(3-methylbut-2-enyloxy)-phenyl)-3-(2,6-dichlorophenyl)-propen-1-one]", "values": [{"measurement": "melting point", "result": "101 to 102", "unit": "°C"}]}
{"smiles": "C#CCOc1ccc(C(=O)C=Cc2cccs2)c(O)c1", "note": "[Compound XIII, 1-(2-Hydroxy-4-(prop-2-ynyloxy)-phenyl)-3-(2-thienyl)-propen-1-one]", "values": [{"measurement": "IC50", "setting": "[1]", "result": 4.3, "unit": "µM"}, {"measurement": "IC50", "setting": "MDA-MB231", "result": 4.9, "unit": "µM"}, {"measurement": "IC50", "setting": "MCF7 ADRr", "result": 5.1, "unit": "µM"}]}
{"smiles": "C#CCOc1ccc(C(=O)C=Cc2ccccc2)c(O)c1", "note": "[Compound XVI, 1-(2-Hydroxy-4-(prop-2-ynyloxy)-phenyl)-3-(phenyl)-propen-1-one]", "values": [{"measurement": "IC50", "setting": "[1]", "result": 4.4, "unit": "µM"}, {"measurement": "IC50", "setting": "MDA-MB231", "result": 8.9, "unit": "µM"}, {"measurement": "IC50", "setting": "MCF7 ADRr", "result": 8.4, "unit": "µM"}]}
{"smiles": "C#CCOc1ccc(C(=O)C=Cc2ccc(C#N)cc2)c(O)c1", "note": "[Compound XXIV, 1-(2-Hydroxy-4-(prop-2-ynyloxy)-phenyl)-3-(4-cyanophenyl)-propen-1-one]", "values": [{"measurement": "melting point", "result": "188 to 190", "unit": "°C"}]}
{"smiles": "C#CCOc1ccc(C(=O)C=Cc2c[nH]c3ccccc23)c(O)c1", "note": "[Compound VII, 1-[2-hydroxy-4-(prop-2-ynyloxy)-phenyl]-3-(indole-3-yl)propen-1-one]", "values": [{"measurement": "IC50", "setting": "[1]", "result": 5.2, "unit": "µM"}, {"measurement": "IC50", "setting": "MDA-MB231", "result": 7.1, "unit": "µM"}, {"measurement": "IC50", "setting": "MCF7 ADRr", "result": 9.4, "unit": "µM"}]}
